According to US20180291468A1, “MARKERS OF TUMOR CELL RESPONSE TO ANTI-CANCER THERAPY” (REGENERON PHARMACEUTICALS, INC., priority 2013, published 2018):

What was measured:
Assay type in all cases: in vivo
[1] = system: A549 lung cancer tumor; test: miRNA marker levels after A549 lung cancer tumor implantation and anti-tumor drug
Procedure: (§1) Plasma samples (50 uL) were stored at −80° C. after receiving them. The samples were thawed on ice, and total RNA was isolated with the miRCURY RNA Isolation Kit for Biofluids (Exiqon) according to the supplied protocol (1 uL of Exiqon spike-in UniRT RNA mix was added to each sample before RNA isolation). RNA was eluted into 50 uL nuclease-free water, and either processed directly for cDNA synthesis of stored at −80° C. until that time. RNA from each sample was used to create cDNA in 40 uL reaction volume with the Universal cDNA Synthesis Kit II (Exiqon) according to the supplied protocol. RNA concentration for plasma samples is not quantitated; 8 uL each RNA sample is used without adjusting concentration. The 40 uL of cDNA per sample was then used to set-up qPCR directly or stored at −20° C. until use. The 40 uL cDNA was diluted into 4 mL of nuclease-free water, and then mixed with 4 mL 2X ExiLENT SYBR Green master mix (Exiqon) to create 8 mL qPCR mix, according to protocol supplied with miRNome Panels (Exiqon). The 8 ml master mix was then pipetted into the two 384-well plates (Exiqon microRNA Ready-to-Use PCR, Human panel I+II, V3.M), 10 ul per well according to the supplied protocol. The plates were briefly centrifuged, sealed, and run on the ABI Viia7 real time PCR thermocycler, using the PCR template program supplied by Exiqon. Results were exported as text files and then imported into the GenEx software (Exiqon) for analysis. Data pre-processing and analysis steps were performed according to the recommendations of the Exiqon Data Analysis Guide. Briefly, biological replicate were grouped, outliers were automatically detected and removed, Ct values higher than 37 were considered background and removed, missing data was filled by the GenEx software with an imputed value based on group mean. Cts for each sample were normalized to the global mean of all expressed miRNAs with a Ct<34.

[2] = system: PC3M prostate cancer tumor; test: miRNA marker levels after PC3M prostate cancer tumor implantation and anti-tumor drug
Procedure: as §1

[3] = system: COLO 205 human colorectal cancer cells; test: Drug efficacy in COLO 205 tumor-bearing mice (tumor burden)
Procedure: Immune compromised mice were injected with COLO 205 human colorectal cancer cells and tumors were allowed to develop, after which the mice were treated with either irinotecan or vehicle for 14 days. In a second control group, normal mice maintained in parallel but not bearing tumors were treated with either irinotecan or vehicle. […] During the course of drug treatment, blood plasma samples were taken from all mice at regular intervals from 3 to 14 days. RNA was prepared from the plasma samples and analyzed for miRNA content by a panel of quantitative PCR assays for approximately 700 miRNAs. The relative quantities of each miRNA assayed were normalized to the global mean in each sample and then compared between the paired groups: drug versus vehicle treatment in tumor-bearing mice; drug versus vehicle in tumor-free mice; and tumor bearing versus tumor-free mice. […]
We looked for miRNAs whose pattern of detection matched that in the mice treated with drug for 14 days. The pattern of quantification for these miRNAs—higher or lower in the drug treated mice compared to the vehicle treated controls—matched miRNAs from the 14 day time point. […] These 14 miRNAs form a signature of plasma miRNA content that correlates with drug efficacy late in the course of drug treatment and predicts efficacy early in the drug treatment regimen before any effects of irinotecan on tumor burden could be detected.

[4] = system: COLO 205 tumor; test: Plasma miRNA profiling by qPCR panel in COLO 205 tumor-bearing mice, drug versus vehicle; details: for miRNAs different upon drug treatment: Higher: plasma, relative to a vehicle-treated control, 3 days, matching 14 day pattern
Procedure: as §1
Immune compromised mice were injected with COLO 205 human colorectal cancer cells and tumors were allowed to develop, after which the mice were treated with either irinotecan or vehicle for 14 days. In a second control group, normal mice maintained in parallel but not bearing tumors were treated with either irinotecan or vehicle. […] During the course of drug treatment, blood plasma samples were taken from all mice at regular intervals from 3 to 14 days. RNA was prepared from the plasma samples and analyzed for miRNA content by a panel of quantitative PCR assays for approximately 700 miRNAs. The relative quantities of each miRNA assayed were normalized to the global mean in each sample and then compared between the paired groups: drug versus vehicle treatment in tumor-bearing mice; drug versus vehicle in tumor-free mice; and tumor bearing versus tumor-free mice. Samples were taken from six replicate mice for each time point in each of the categories.
To eliminate those miRNA differences that were the result of drug treatment alone, we examined the miRNA profiles in the irinotecan treated normal, tumor-free mice compared with the same type of mice treated with vehicle.
We looked for miRNAs whose pattern of detection matched that in the mice treated with drug for 14 days. The pattern of quantification for these miRNAs—higher or lower in the drug treated mice compared to the vehicle treated controls—matched miRNAs from the 14 day time point. We found three miRNAs, miR-30d-3p, miR-483-5p, and miR-708-3p, that were elevated in the drug treated tumor bearing mice compared with the vehicle controls and 11 miRNAs, miR-21-3p, miR-101-5p, miR-122-3p, miR-197-3p, miR-429, miR-501-3p, miR-509-3p, miR-598, miR-206, miR-885-5p, and miR-1972, that were lower in the drug treated mice compared with the controls. These 14 miRNAs form a signature of plasma miRNA content that correlates with drug efficacy late in the course of drug treatment and predicts efficacy early in the drug treatment regimen before any effects of irinotecan on tumor burden could be detected. […]

[5] = three days following administration
[6] = three days, matched 14 day time point

In the case of `N.N.[Cl][Pt][Cl]` [Cisplatin], the “particular miRNA marker levels upon administration to lung tumors (FIG. 2)” value ([1]; lung tumors (A549)) is reported as “decrease”, the “level of certain miRNA markers that decrease upon tumor implantation (FIG. 3)” value [1, 5] is reported as “increase” and the “level of certain miRNA markers that increase upon tumor implantation (FIG. 1)” value [1, 5] is reported as “decrease”. The “level of miR-16-5p, miR-1208, miR-24-3p and miR-588 (FIG. 4)” value [1, 5] was “increase”.
`CC(=O)O[C@@]12CO[C@@H]1C[C@H](O)[C@@]1(C)C(=O)[C@H](O)C3=C(C)[C@@H](OC(=O)[C@H](O)[C@@H](NC(=O)OC(C)(C)C)c4ccccc4)C[C@@](O)([C@@H](OC(=O)c4ccccc4)[C@H]21)C3(C)C` [Docetaxel] was tested, and the “level of certain miRNA markers that decrease upon tumor implantation (FIG. 7)” value ([2]; following administration) was “increase”, the “level of certain miRNA markers that increase upon tumor implantation (FIG. 5)” value ([2]; following administration) was “decrease” and the “level of miR-190, miR-153 and miR-92a-1 (FIG. 6)” value ([2]; following administration) was “decrease”. For the same molecule, the “level of miR-634 and miR-647 (FIG. 8)” value ([2]; following administration) was “increase” and the “particular miRNA marker levels upon administration to prostate tumors (FIG. 2)” value ([2]; prostate tumors (PC3M)) was “decrease”.
For `CCc1c2c(nc3ccc(OC(=O)N4CCC(N5CCCCC5)CC4)cc13)-c1cc3c(c(=O)n1C2)COC(=O)[C@]3(O)CC` [irinotecan], the “tumor burden in drug treated mice versus vehicle treated control group” value ([3]; after 14 days of drug treatment) was “significantly lower tumor burden”, the “difference in tumor burden, drug versus vehicle” value ([3]; treated for only three days) was “no significant difference in tumor burden” and the “detection of the 11 miRNAs in plasma of drug treated mice” value ([4]; detectable in the vehicle treated mice) was “undetectable”. The “miRNAs different upon drug treatment: Higher” value ([4]; miR-483-5p) was “miR-483-5p”, the “miRNAs different upon drug treatment: Higher” value ([4]; miR-708-3p) was “miR-708-3p” and the “miRNAs different upon drug treatment: Higher” value ([4]; miR-30d-3p) was “miR-30d-3p”. For the same molecule, the “plasma miR-21-3p, miR-101-5p, miR-122-3p, miR-197-3p, miR-429, miR-501-3p, miR-509-3p, miR-598, miR-206, miR-885-5p and miR-1972 in drug treated mice compared with controls” value [4, 6] was “lower”, the “plasma miR-30d-3p, miR-483-5p and miR-708-3p in drug treated tumor bearing mice compared with vehicle controls” value [4, 6] was “elevated” and the “detection of miR-30d-3p and miR-708-3p in plasma of treated tumor-bearing mice” value ([4]; tumor-bearing mice) was “went from undetected to detected”. For the same molecule, the “plasma miR-483-5p in treated tumor-bearing mice” value ([4]; tumor-bearing mice) was “increased”.
